Structures can show the parent of a compound that is named as a salt.
Assays:
[1] = molecular target: T1, EcoVRS (valyl-tRNA synthetase from Escherichia coli) (Escherichia coli, UniProt P07118); assay: aaRS aminoacylation assay (ATP consumption), EcoVRS; format: biochemical; settings: i.a. = inactive at a concentration below 50 uM
T1 construct: made in house; host or cells: Escherichia coli M15
Protocol: (§1) The compounds have been tested for antibacterial activity in vitro as aminoacyl-tRNA synthetases (aaRS) inhibitors following the following process.
(§2) Leucyl-, valyl- and isoleucyl-tRNA synthetases (LRS, VRS and IRS, respectively) from Escherichia coli (Eco) and Staphylococcus aureus (Sau).
(§3) Escherichia coli M15 cells transformed with plasmid pQE-60, or pQE-70, containing the open-reading frame sequence of one targeted aaRS were induced with 1 mM IPTG (Isopropyl β-D-1-thiogalactopyranoside) for 3 h at 37° C. Bacterial cells were harvested and lysed with 20 mM NaH2PO4 (pH 8.0), 200 mM NaCl, 10 mM imidazole and protease inhibitor cocktail (Roche). Pathogenic aaRS was purified by nickel affinity standard chromatography. Protein concentration was determined by spectrophotometry.
(§4) tRNA^Leu, tRNA^Val and tRNA^Ile from E. coli and S. aureus were transcribed in vitro for 4 h at 37° C. using T7 RNA polymerase. Transcription reaction contained 40 mM Tris-HCl (pH 8.0), 22 mM MgCl2, 1 mM spermidine, 5 mM DTT, 0.01% Triton X-100, 4 mM GTP, 4 mM ATP, 4 mM UTP, 4 mM CTP, 16 mM GMP, […] T7 RNA polymerase and 150 μg BstNI digested plasmid. Once finished, the reaction was applied on a 6% polyacrylamide-8 M urea denaturing gel to purify the transcribed tRNA and discard any impurities. Purified tRNA was quantified with Nanodrop 2000 (Thermo Scientific).
(§5) The aminoacylation reaction catalyzed by aminoacyl-tRNA synthetases (aaRS) takes place in two steps. In the first step, aaRS activates its cognate amino acid with ATP; and in the second step the activated amino acid is loaded to its corresponding tRNA. This reaction can be summarized as follows: ARS+aa+ATP=ARS-aa-AMP+PPi ARS-aa-AMP+tRNA=aa-tRNA+AMP+ARS [2] (ARS, Aminoacyl-tRNA synthetase; aa, amino acid; ARS-aa-AMP, enzyme-bound to aminoacyl-adenylate; aa-tRNA, aminoacyl-tRNA).
(§6) The activity of the pathogenic aaRSs was monitored by measuring the ATP consumption rate, since this consumption is directly proportional to the activity of the aaRS. If the tested compound, at a single point concentration of 50 μM, is inhibiting the aminoacylation reaction, there is a decrease in the ATP consumption, compared to the control reaction without compound, allowing the calculation of an inhibition ratio.
(§7) When the inhibition ratio for a given compound was above 80%, IC50 determination was performed with the same enzymatic assay (using the commercial kit Kinase RR from BioThema AB, Sweden) in the presence of serial dilutions of inhibitor. Known inhibitors of LRS, VRS or IRS were used as a positive control of the assay. The IC50 was calculated based on nonlinear regression analysis.

[2] = molecular target: T2, EcoIRS (isoleucyl-tRNA synthetase from Escherichia coli) (Escherichia coli, UniProt P00956); assay: aaRS aminoacylation assay (ATP consumption), EcoIRS; format: biochemical; settings: i.a. = inactive at a concentration below 50 uM
T2 construct: made in house; host or cells: Escherichia coli M15
Protocol: as §1, §2, §3, §4, §5, §6, §7

[3] = molecular target: T3, EcoLRS (leucyl-tRNA synthetase from Escherichia coli) (Escherichia coli, UniProt P07813); assay: aaRS aminoacylation assay (ATP consumption), EcoLRS; format: biochemical; settings: for % at single point concentration (inhibition ratio), EcoLRS: @50 μM compound
T3 construct: made in house; host or cells: Escherichia coli M15
Protocol: as §1, §2, §3, §4, §5, §6, §7

[4] = molecular target: T4, SauLRS (leucyl-tRNA synthetase from Staphylococcus aureus) (Staphylococcus aureus, UniProt Q2FXH2); assay: aaRS aminoacylation assay (ATP consumption), SauLRS; format: biochemical; settings: i.a. = inactive at a concentration below 50 uM
T4 construct: made in house; host or cells: Escherichia coli M15
T4 sequence (Q2FXH2 1-805): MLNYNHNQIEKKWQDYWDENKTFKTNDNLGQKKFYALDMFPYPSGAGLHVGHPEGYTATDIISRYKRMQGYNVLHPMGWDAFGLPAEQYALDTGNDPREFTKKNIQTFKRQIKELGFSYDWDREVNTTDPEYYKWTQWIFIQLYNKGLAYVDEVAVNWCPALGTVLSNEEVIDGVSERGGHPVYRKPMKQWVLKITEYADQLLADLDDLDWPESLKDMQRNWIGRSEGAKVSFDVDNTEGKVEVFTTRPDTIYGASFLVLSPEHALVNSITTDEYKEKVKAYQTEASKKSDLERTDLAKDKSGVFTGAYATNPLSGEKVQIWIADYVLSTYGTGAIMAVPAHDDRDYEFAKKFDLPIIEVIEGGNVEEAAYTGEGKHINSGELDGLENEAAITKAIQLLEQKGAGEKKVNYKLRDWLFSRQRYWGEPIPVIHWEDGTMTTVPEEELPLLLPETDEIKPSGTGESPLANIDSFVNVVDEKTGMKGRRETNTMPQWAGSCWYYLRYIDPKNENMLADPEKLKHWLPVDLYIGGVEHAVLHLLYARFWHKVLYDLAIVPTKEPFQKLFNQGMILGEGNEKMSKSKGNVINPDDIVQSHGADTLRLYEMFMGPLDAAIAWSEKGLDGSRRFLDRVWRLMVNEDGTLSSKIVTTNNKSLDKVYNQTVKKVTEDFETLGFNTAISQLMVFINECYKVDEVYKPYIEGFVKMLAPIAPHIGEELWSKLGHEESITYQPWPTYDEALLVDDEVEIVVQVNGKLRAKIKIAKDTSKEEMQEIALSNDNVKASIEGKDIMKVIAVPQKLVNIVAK
Protocol: as §1, §2, §3, §4, §5, §6, §7

[5] = molecular target: T5, SauVRS (valyl-tRNA synthetase from Staphylococcus aureus) (Staphylococcus aureus, UniProt Q2FXR8); assay: aaRS aminoacylation assay (ATP consumption), SauVRS; format: biochemical; settings: i.a. = inactive at a concentration below 50 uM
T5 construct: made in house; host or cells: Escherichia coli M15
T5 sequence (Q2FXR8 1-876): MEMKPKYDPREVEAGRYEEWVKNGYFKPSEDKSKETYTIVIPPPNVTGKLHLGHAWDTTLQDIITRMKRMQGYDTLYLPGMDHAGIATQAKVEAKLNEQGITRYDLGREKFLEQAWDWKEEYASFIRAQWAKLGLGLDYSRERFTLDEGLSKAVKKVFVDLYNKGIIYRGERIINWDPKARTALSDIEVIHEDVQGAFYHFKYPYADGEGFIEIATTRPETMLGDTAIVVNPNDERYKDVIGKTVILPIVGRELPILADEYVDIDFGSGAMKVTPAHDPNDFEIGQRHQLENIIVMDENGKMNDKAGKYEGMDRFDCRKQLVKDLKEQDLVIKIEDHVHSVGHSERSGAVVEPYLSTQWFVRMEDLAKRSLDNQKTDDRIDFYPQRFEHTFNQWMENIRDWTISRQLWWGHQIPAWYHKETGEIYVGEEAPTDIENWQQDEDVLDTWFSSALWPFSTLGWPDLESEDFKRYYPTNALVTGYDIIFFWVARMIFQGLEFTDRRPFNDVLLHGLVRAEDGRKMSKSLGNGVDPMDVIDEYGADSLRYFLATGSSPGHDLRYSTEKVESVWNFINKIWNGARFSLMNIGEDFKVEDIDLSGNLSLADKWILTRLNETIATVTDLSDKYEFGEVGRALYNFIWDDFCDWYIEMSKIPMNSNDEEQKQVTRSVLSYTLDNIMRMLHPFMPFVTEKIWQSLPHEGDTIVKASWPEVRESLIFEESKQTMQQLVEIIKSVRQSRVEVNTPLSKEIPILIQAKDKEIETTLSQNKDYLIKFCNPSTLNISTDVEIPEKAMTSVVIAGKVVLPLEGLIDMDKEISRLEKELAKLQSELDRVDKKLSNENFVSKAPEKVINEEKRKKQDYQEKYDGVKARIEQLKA
Protocol: as §1, §2, §3, §4, §5, §6, §7

T3 sequence (P07813 whole entry): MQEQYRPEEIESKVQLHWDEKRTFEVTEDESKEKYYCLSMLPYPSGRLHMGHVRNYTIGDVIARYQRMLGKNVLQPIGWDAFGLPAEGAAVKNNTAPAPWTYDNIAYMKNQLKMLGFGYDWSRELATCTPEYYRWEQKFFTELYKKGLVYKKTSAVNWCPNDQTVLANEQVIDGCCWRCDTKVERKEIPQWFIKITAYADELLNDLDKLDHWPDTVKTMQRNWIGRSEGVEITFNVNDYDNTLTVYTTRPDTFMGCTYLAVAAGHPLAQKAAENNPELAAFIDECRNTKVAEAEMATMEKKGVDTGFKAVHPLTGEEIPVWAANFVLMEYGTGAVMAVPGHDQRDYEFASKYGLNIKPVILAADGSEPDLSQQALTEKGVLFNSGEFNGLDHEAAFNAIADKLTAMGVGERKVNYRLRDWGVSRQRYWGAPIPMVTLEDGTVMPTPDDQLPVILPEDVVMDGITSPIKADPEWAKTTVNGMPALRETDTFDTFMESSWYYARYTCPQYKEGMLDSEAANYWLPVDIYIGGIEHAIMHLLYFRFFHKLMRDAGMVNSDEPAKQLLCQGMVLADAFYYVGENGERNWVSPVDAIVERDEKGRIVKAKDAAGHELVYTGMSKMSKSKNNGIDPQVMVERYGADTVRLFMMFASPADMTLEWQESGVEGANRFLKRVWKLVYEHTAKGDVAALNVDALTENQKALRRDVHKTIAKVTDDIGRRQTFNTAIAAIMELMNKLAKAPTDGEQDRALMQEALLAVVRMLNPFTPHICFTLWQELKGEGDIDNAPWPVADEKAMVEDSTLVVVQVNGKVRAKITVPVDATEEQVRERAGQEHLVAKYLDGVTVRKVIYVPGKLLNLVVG
T1 sequence (P07118 whole entry): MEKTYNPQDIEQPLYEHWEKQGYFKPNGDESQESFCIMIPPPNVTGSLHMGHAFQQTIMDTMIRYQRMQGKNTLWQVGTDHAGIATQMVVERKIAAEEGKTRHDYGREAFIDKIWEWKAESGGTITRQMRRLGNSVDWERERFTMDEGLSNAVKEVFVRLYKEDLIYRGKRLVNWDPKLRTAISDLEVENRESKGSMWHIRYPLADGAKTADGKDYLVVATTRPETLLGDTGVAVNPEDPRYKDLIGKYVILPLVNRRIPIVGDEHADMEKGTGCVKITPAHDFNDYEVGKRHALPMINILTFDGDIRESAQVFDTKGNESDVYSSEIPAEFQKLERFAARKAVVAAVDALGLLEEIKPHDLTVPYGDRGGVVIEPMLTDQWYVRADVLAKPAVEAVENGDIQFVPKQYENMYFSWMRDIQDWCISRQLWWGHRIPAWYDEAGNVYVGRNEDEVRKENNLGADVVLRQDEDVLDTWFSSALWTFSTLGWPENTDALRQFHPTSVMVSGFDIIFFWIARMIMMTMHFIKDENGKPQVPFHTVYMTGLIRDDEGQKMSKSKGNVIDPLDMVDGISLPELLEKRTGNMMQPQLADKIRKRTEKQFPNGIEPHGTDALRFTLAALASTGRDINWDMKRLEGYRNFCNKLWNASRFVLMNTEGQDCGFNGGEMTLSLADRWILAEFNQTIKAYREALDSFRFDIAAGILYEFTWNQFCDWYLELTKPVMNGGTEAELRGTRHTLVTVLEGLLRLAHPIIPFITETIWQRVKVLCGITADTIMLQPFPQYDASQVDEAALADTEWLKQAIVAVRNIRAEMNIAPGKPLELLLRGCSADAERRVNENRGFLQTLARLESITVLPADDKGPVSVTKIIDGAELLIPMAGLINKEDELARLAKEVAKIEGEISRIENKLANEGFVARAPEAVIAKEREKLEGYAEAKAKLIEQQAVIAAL
T2 sequence (P00956 whole entry): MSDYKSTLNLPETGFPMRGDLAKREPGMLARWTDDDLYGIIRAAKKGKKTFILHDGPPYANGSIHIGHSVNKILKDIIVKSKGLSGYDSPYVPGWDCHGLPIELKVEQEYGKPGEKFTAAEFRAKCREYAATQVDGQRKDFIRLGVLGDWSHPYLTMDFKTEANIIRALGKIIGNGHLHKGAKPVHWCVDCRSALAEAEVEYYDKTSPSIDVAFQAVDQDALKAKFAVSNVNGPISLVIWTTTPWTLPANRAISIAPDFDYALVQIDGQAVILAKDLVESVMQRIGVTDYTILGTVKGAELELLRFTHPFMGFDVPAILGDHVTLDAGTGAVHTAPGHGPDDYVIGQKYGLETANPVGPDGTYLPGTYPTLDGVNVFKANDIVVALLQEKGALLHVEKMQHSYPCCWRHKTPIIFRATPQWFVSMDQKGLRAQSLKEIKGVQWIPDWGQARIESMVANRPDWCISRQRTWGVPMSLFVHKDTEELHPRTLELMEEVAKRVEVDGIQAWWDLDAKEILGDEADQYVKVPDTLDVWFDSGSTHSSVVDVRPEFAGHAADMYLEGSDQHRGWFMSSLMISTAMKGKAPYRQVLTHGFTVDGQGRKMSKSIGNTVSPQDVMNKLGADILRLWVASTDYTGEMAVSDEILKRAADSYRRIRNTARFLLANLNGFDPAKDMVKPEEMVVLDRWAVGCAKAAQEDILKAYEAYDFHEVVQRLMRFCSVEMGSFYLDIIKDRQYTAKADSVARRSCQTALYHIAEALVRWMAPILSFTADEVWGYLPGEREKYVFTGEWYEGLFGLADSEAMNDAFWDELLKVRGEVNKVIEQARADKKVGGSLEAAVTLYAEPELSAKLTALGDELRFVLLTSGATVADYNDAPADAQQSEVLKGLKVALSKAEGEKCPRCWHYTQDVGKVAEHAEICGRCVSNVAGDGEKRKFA

| SMILES | melting point [°C] | also measured |
| --- | --- | --- |
| CC(C)C[C@H](N)C(=O)NS(=O)(=O)c1cccc2c(N(C)C)cccc12 (as salt: hydrochloride) [Compound 5.16, (S)-2-amino-N-((5-(dimethylamino)naphthalen-1-yl)sulfonyl)-4-methylpentanamide hydrochloride] | 178 to 180 |  |
| CC(C)C[C@H](N)C(=O)NS(=O)(=O)c1cccc2cc(C(N)=O)ncc12 (as salt: salt) [Compound 5.24, 8-(N-(L-Leucyl)sulfamoyl)isoquinoline-3-carboxamide] | 222.9 |  |
| CC(C)C[C@H](N)C(=O)NS(=O)(=O)c1ccc(Br)c2ccncc12 (as salt: trifluoroacetate) [Compound 5.22] | 137 to 139 |  |
| CC(C)C[C@H](N)C(=O)NS(=O)(=O)c1cccc2c1CNCC2 (as salt: trifluoroacetate) [Compound 5.26, (S)-2-amino-4-methyl-N-((1,2,3,4-tetrahydroisoquinolin-8-yl)sulfonyl) pentanamide trifluoroacetate] | 90 to 92 |  |
| CC(C)C[C@H](N)C(=O)NS(=O)(=O)c1ccc(F)cc1 [Compound 5.8] | 235 to 236 |  |
| COc1ccc(S(=O)(=O)NC(=O)[C@@H](N)CC(C)C)c2ccccc12 [Compound 5.18] | 253 to 255 |  |
| CC(C)C[C@H](N)C(=O)NS(=O)(=O)c1ccccn1 [Compound 5.20] | 203 to 205 |  |
| CC(C)C[C@H](N)C(=O)NS(=O)(=O)c1ccc(O)c2ccccc12 [Compound 5.23] | 250 to 252 |  |
| Cc1cc(-c2cccc(S(=O)(=O)NC(=O)[C@@H](N)C3CCCCC3)c2)nc(N)n1 [Compound 5.32] |  | IC50 EcoVRS [1]: i.a; IC50 EcoIRS [2]: i.a; IC50 [3]: 38 µM; IC50 SauLRS [4]: i.a; IC50 SauVRS [5]: i.a |
| CC(C)C[C@H](N)C(=O)NS(=O)(=O)c1cccc(-c2cc(OC(C)C)nc(N)n2)c1 [Compound 5.51] |  | % at single point concentration (inhibition ratio), EcoLRS [3]: 102%@50 μM |
| CC(C)C[C@H](N)C(=O)NS(=O)(=O)c1cccc(-c2cc(Oc3ccccc3)nc(N)n2)c1 [Compound 5.52] |  | % at single point concentration (inhibition ratio), EcoLRS [3]: 104%@50 μM |
